Data from US11136301B2, “Broad spectrum antiviral compounds and uses thereof” (The Regents Of The University Of California, priority 2015, dated 2021).
Entries after “also recorded” stand apart in the source; their conditions may differ. Read-outs that look alike come from different tables or passages of the source.

Experiments:
[1] = tested on: HSP90-A3G interaction (GST-Hsp90, recombinant human A3G); experiment: In vitro binding of purified GST-HSP90 and recombinant A3G; conditions: purified proteins, 50 μM in 1% DMSO
[2] = tested on: wild-type HIV-1 (HIV-1LAI) in H9 cells (non-permissive); experiment: microbe, parasite or virus in culture; format: cell-based
[3] = tested on: Vif-A3G-HSP90-Cul5-CBF-β E3 ligase complex; experiment: Immunoprecipitation of IMA82-interacting proteins / E3 ligase complex; format: cell-based
Procedure: Cells were washed twice with PBS and lysed in IP lysis buffer (Thermo) or in a buffer composed of 50 mM Tris-HCl (pH 7.2), 150 mM NaCl, 1% NP-40, 10% glycerol, and protease inhibitor cocktail. Cell lysates ([…]) were incubated with 5 μl of rat anti-HA (Roche), rabbit anti-GFP (Cell Signaling), mouse anti-Hsp90 (Millipore), or rabbit anti-Cul5 (Sigma) plus 30 μl of protein A or G DYNABEADS® (Invitrogen) and rotated at RT for 2 h. The beads were washed three times with PBS containing 0.05% Tween 20. Each lysate was immunoprecipitated in triplicate and the beads were combined. Immune complexes were eluted by boiling in 5×SDS sample buffer. The proteins were separated by SDS-PAGE and analyzed by immunoblotting with antibodies to HA (A3G), GFP (Vif), Hsp90, Cul5, and CBF-β, as described above.

[4] = tested on: HSP90; experiment: ViTAP (Vif inhibitor Target Affinity Purification): streptavidin affinity purification of compound-bound proteins; format: binding
[5] = tested on: A3G and Vif levels in HSP90 or Cul5 knockdown cells; experiment: Knockdown of Hsp90 and Cul5 followed by IMA82 treatment, immunoblot
[6] = tested on: HA-tagged A3G and GFP-tagged Vif or ΔVif in 293FT cells; experiment: Immunoblot of A3G and Vif levels in transfected 293FT cells; conditions: 16 h
[7] = tested on: A3G and Vif levels in HSP90 or Cul5 knockdown cells
[8] = tested on: polyubiquitination of A3G and Vif; experiment: Ubiquitination assay in 293FT cells; format: cell-based; conditions: 293FT cells expressing HA-A3G and GFP-Vif, 10 μM, ALLN
Procedure: Cells were incubated with or without 10 μM of IMA82, IMD55, or IMD64 for 16 h, and then with or without 10 μM of the calpain inhibitor ALLN for 4 h. The cells were washed once with PBS and lysed. Samples of 200 μg protein were immunoprecipitated by the addition of rat anti-HA (Roche) or mouse anti-GFP (Wako) antibodies (7 μg) and 50 μl protein G DYNABEADS® (Invitrogen) and rotated at RT for 2 h. The beads were washed three times with PBS containing 0.05% Tween 20 and boiled in 5×SDS sample buffer. The denatured proteins were resolved and electroblotted onto PVDF membranes. The membranes were probed with rabbit anti-ubiquitin, rabbit anti-HA, or rabbit anti-GFP antibodies, as described above.

[9] = tested on: A3G, Vif, p24, HSP90 in HIV-1LAI-infected H9 and MT4 cells; experiment: Protein analysis (immunoblot) of HIV-1 infected H9 and MT4 cells; format: cell-based; conditions: for HIV-1 p24 levels: 72 h
Procedure: Non-permissive (H9) and permissive (MT4) cells were treated with 1% DMSO, IMA82, or 17-DMAG overnight and then infected with HIV-1LAI for 5 h. Cells were washed three times with PBS and cultured in medium for 72 h in the presence of the same concentrations of DMSO, IMA82, or 17-DMAG. Total cell lysates were prepared with M-PER buffer containing 0.5% Triton X-100, 150 mM NaCl, 5 mM EDTA, and protease inhibitor cocktail. Protein concentrations were determined with the DC protein assay kit (Bio-Rad). Immunoblotting was performed as described above.

[10] = tested on: HIV-1 in CEM cells; conditions: CEM cells (non-permissive); cited from earlier work
[11] = tested on: APOBEC3G, Vif and cellular Hsp90 substrates (AKT, HER2); experiment: Western blot of viral and cellular proteins in 293T cells co-transfected with HIV-1 (pLAI2) and HA-tagged APOBEC3G; format: cell-based; conditions: 50 μM, 24 h
Procedure: FIG. 13. […] 293T cells were co-transfected with HIV-1 (pLAI2) and HA-tagged APOBEC3G vectors and cultured for 24 h in the presence (+) or absence (−) of 50 μM RN-18. Cell lysates were collected and used for Western blot analysis with antibodies against the viral and cellular proteins indicated. Levels of cellular GAPDH were used as a loading control.
Both RN-18 and 17-AAG interact with HSP90 in Cul5 mediated E3 ligase complex. […] Cell lysates were prepared and various viral and cellular protein levels were analyzed by immunoblotting (FIG. 13). Levels of cellular GAPDH were used as loading controls.

[12] = tested on: wild-type HIV-1 (HIV-1LAI) in MT-4 cells (permissive); conditions: 100 μM; cited from earlier work
[13] = tested on: wild-type HIV-1 (HIV-1LAI) in MT-4 cells (permissive); experiment: Antiviral activity assay: wild-type HIV-1 in permissive MT4 cells, reverse transcriptase activity in culture supernatants; format: cell-based; conditions: wild-type HIV-1, permissive MT4 cells, read-out: Antiviral activity (IC50 μM) MT4 cells
[14] = tested on: wild-type HIV-1 (HIV-1LAI) in H9 cells (non-permissive); conditions: earlier finding on RN-18; cited from earlier work

Question: For `COc1cc(C(=O)NCCOCCOCCOCCNC(=O)CCCCC2SCC3NC(=O)NC32)ccc1NC(=O)c1ccc(Sc2ccc([N+](=O)[O-])cc2)cc1Cl` (centres unmarked) [IMA82, 2-chloro-N-(2-methoxy-4-((13-oxo-17-(2-oxohexahydro-1H-thieno[3,4-d]imidazol-4-yl)-3,6,9-trioxa-12-azaheptadecyl)carbamoyl)phenyl)-4-((4-nitrophenyl)thio)benzamide], which “A3G binding to GST-HSP90” value [1] is on record?
Answer: block APOBEC3G association; also recorded: inhibited A3G binding to GST-HSP90

Question: And the “viral replication (reverse transcriptase activity in supernatants)” value ([2]; H9 cells, HIV-1LAI, up to 50 μM, 15 days)?
Answer: dose-dependently inhibited viral replication

Question: What about the “HSP90-A3G interaction, FLAG-HSP90 affinity purification” value ([3]; 293FT cells transfected with FLAG-HSP90 and HA-A3G, 16 h) of the same molecule?
Answer: inhibited interactions of HSP90 and A3G

Question: And the “A3G association with the immunoprecipitated E3 ligase complexes” value ([3]; 293FT-A3G-Vif and 293FT-A3G-ΔVif cells, 10 μM)?
Answer: prevents APOBEC3G association; also recorded: not present

Question: And the “co-purification of HSP90 (90 kDa protein) with the compound” value ([4]; transfected 293FT cells, streptavidin affinity purification)?
Answer: HSP90 is targeted; also recorded: purified a specific 90 kDa protein; also recorded: co-purified with IMA82; also recorded: specifically interacts with HSP90

Question: What about the “A3G or Vif levels” value ([5]; Cul5-depleted 293FT-A3G-Vif cells) of the same molecule?
Answer: no further effect

Question: And the A3G levels ([5]; control siRNA (siNT) 293FT-A3G-Vif cells)?
Answer: rescue of A3G levels

Question: And the A3G expression ([6]; 293FT cells co-expressing HA-A3G and Vif or ΔVif)?
Answer: dose-dependently restored A3G expression; also recorded: enhances APOBEC3G expression

Question: And the “Vif expression / degradation” value ([6]; 293FT cells co-expressing HA-A3G and Vif)?
Answer: induces Cul5-mediated degradation of Vif; also recorded: enhanced Vif degradation; also recorded: reduces Vif expression

Question: And the CBF-β levels ([6]; transfected 293FT cells)?
Answer: no effect on levels of CBF-β

Question: And the HSP90 expression ([6]; transfected 293FT cells)?
Answer: did not significantly affect expression of HSP90 protein

Question: What about the “A3G or Vif levels” value [7] of the same molecule?
Answer: no effect

Question: What about the A3G ubiquitination [8] of the same molecule?
Answer: not observed; also recorded: reduced

Question: And the Vif ubiquitination [8]?
Answer: ubiquitinated; also recorded: increased

Question: And the A3G levels ([9]; HIV-1-infected H9 cells)?
Answer: restored A3G levels

Question: What about the Vif levels ([9]; HIV-1-infected H9 cells) of the same molecule?
Answer: decreased Vif levels

Question: And the “HIV-1 p24 levels” value ([9]; HIV-1LAI-infected H9 cells)?
Answer: reduced

Question: And the “HIV-1 p24 levels” value ([9]; HIV-1LAI-infected MT4 cells)?
Answer: not MT4 cells

Question: What does the source list for `COc1ccccc1NC(=O)c1ccccc1Sc1ccc([N+](=O)[O-])cc1` [RN-18, N-(2-methoxyphenyl)-2-((4-nitrophenyl)thio)benzamide]?
Answer: IC50 [10]: 4.5 µM; viral replication (reverse transcriptase activity) ([2]; HSP90 knockdown H9 cells, 15 days): no effect; IC50 ([2]; Human immunodeficiency virus 1, H9, read-out: Antiviral activity (IC50 μM) H9 cells, Table 1, wild-type HIV-1, non-permissive H9 cells): 6 µM; IC50 ([2]; Human immunodeficiency virus 1, H9, read-out: Antiviral activity (IC50 μM) H9 cells, Table 3, wild-type HIV-1, non-permissive H9 cells): 6 µM; IC50 ([2]; Human immunodeficiency virus 1, H9, read-out: IC50, anti-HIV-1 activity, non-permissive H9 cells): 6 µM; viral replication (reverse transcriptase activity) ([2]; shNT control H9 cells, 15 days): inhibited viral replication; levels of cellular Hsp90 substrates (AKT and HER2) [11]: no effect on AKT and HER2 levels; also recorded: does not affect the levels of cellular Hsp90 substrates; A3G level ([11]; HIV-1 (pLAI2) and HA-A3G): restored A3G; also recorded: specifically restores APOBEC3G; Vif level ([11]; HIV-1 (pLAI2) and HA-A3G): enhanced degradation of Vif; inhibition of IMA82 (25 μM) binding to FLAG-tagged HSP90 ([4]; competitive binding, 0-30 μM competitor, 293FT cells): dose-dependently inhibited; activity in MT4 cell line [12]: does not show any activity; also recorded: does not inhibit viral infectivity; IC50 ([13]; Human immunodeficiency virus 1, MT4, Table 1): > 50 µM; IC50 ([13]; Human immunodeficiency virus 1, MT4, Table 3): > 50 µM; IC50 [14]: 6 µM
